In US6862890B2, “Process for production of nanoparticles and microparticles by spray freezing into liquid” (Board of Regents, University of Texas System, priority 2001, dated 2005):
Each block holds one compound with its values, some of them ahead of it.

Tests used:
Assay type in all cases: physicochemical
[1] = Contact angle of powder compacts against purified water (wettability); conditions: compacts of powders
Description: The two solutions were mixed and allowed to equilibrate to generate a water-soluble inclusion complex between danazol and HPβCD. The solution was then processed by SFL and freeze-dried in a tray lyophilizer. The solution was atomized directly into liquid nitrogen through an insulated polyetheretherketone (PEEK) nozzle with a 63.5 μm orifice at 5000 psi constant pressure supplied by an ISCO syringe pump. The atomized frozen powder was then collected by sieve filtration and freeze-dried. […] Measurement of the contact angle of compacts of the various samples investigated allowed for the determination of the wettability of the powders. […] A lower contact angle coincided with enhanced wettability of the powder in aqueous dissolution media. […] The two solutions were mixed to form a one-phase cosolvent solution. The solution was then processed by SFL and freeze-dried and fluidized in an atmospheric freeze-drying (ATMFD) chamber. […] The atomized frozen powder was then collected by sieve filtration and freeze-dried using a cryogenic atmospheric (ATMFD) fluidized bed apparatus. […] The microparticles are porous and have a high surface area. […] Measurement of the contact angle of compacts of the various samples investigated allowed for the determination of the wettability of the powders. […] A lower contact angle coincided with a better wettability of the powder in aqueous dissolution media. […]

[2] = Particle size of powders (time-of-flight, AERO-[…])
Method: (§1) An aliquot of 0.1 g bovine insulin was dissolved in 20 ml HCl (pH=2), the solution was then titrated by 0.1 N NaOH to pH 7.4. The feed solution was then atomized using an ISCO pump by spray freezing into liquid nitrogen. The nozzle used was polyetheretherketone tubing with a diameter of 63.5 μm. The flow rate was 14 ml/min at 4000 psi. The frozen particles were collected and dried in a tray lyophilizer.
The span index is used to described the polydispersity in a given particle size distribution and is defined as (D90-D10)/D50, where D10, D50, and D90 are the respective particle size at 10, 50, 90 percent cumulative percent undersize.

[3] = Chemical stability of insulin: level of covalent insulin dimer; conditions: for percentage of covalent insulin dimer: stored at −4° C.
Method: as §1, with “lyophilizer. The resulting particles were highly porous. […] The SFL process decreased the level of covalent insulin dimer (Table 2). The mean particle size diameter as determined by time-of-flight measurement was 5.06 microns. SEM photographs reveal that the particle is an aggregate composed of small domains of insulin.” for “lyophilizer.”
(§2) The SFL insulin powder was prepared according to the procedure outlined in Example 1 with same formulation. The SFL insulin powder was stored at −4° C. The samples were taken out at 6, 12 and 24 weeks.

[4] = Chemical stability of insulin: level of A-21 desamido insulin; conditions: stored at −4° C.
Method: as §1, with “lyophilizer. The resulting particles were highly porous. […] The SFL process decreased the level of covalent insulin dimer (Table 2). The mean particle size diameter as determined by time-of-flight measurement was 5.06 microns. SEM photographs reveal that the particle is an aggregate composed of small domains of insulin.” for “lyophilizer.”
as §2

[5] = Dissolution of drug from powders in dissolution media (FeSSIF); conditions: 60 minutes
Description: This media is used to simulate gastrointestinal conditions. FeSSIF is the dissolution media that the powders produced in the following examples are dispersed into to quantitate the amount of drug dissolved as a function of time.

[6] = BET specific surface area of powders

- Average Contact Angle ± S.D. against purified water [1]: 64.3 ± 1.1 °
- Average Contact Angle ± S.D. against purified water ([1]; listed as danazol alone): 64.3 °
Compound: C#C[C@]1(O)CC[C@H]2[C@@H]3CCC4=Cc5oncc5C[C@]4(C)[C@H]3CC[C@@]21C [SFL Danazol Alone, danazol]

- Span Index (D90-D10)/D50 [2]: 2.94
- D10 ([2]; time-of-flight, 10 percent cumulative undersize): 15.56 μm
- D50 ([2]; time-of-flight, 50 percent cumulative undersize): 39.70 μm
- D90 ([2]; time-of-flight, 90 percent cumulative undersize): 132.33 μm
Compound: NC(=O)N1c2ccccc2C=Cc2ccccc21 [CBZ, carbamazepine]

Compound: bovine insulin [Bulk insulin]
- Mean Particle Size ([2]; time-of-flight): 14.24 μm
- percentage of covalent insulin dimer ([3]; 12 weeks): 1.18 percentage
- percentage of covalent insulin dimer ([3]; 24 weeks): 1.15 percentage
- Covalent Insulin Dimer (percent) ([3]; Example 1, after SFL and lyophilization vs bulk): 0.25%
- percentage of covalent insulin dimer ([3]; Initial): 0.5 percentage
- percentage of A-21 desamido ([4]; 12 weeks): 2.61 percentage
- percentage of A-21 desamido ([4]; 24 weeks): 2.72 percentage
- percentage of A-21 desamido ([4]; Initial): 2.46 percentage

- amount of danazol dissolved [5]: 21%
- BET surface area [6]: 0.52 m^2/g
Compound: C#C[C@]1(O)CC[C@H]2[C@@H]3CCC4=Cc5oncc5C[C@]4(C)[C@H]3CC[C@@]21C [Danazol]
